Experimental data published in paper PMC9725750, “The clinical pharmacology of tafenoquine in the radical cure of Plasmodium vivax malaria: An individual patient data meta-analysis” (eLife, 2022).
Like-named read-outs stand apart in the source and are kept apart here.

Assays:
[1] = cited from earlier work
CYP2D6 = CYP2D6 activity score (poor vs normal/extensive metabolisers): association with recurrence and half-life; assay type: in vivo, human
Description: CYP2D6 genotyping data were available for patients enrolled in DETECTIVE part 2 and GATHER. We mapped CYP2D6 diplotypes to an activity score using the standard scoring system ([Caudle et al., 2020]) (note that under the updated scoring system the *10 allele has a score of 0.25 instead of 0.5). The activity score cannot be used as a linear predictor (e.g. a score of 1 cannot be interpreted as twice the metabolic activity of a score of 0.5). For this reason, to assess association with recurrence, we dichotomised the activity scores into poor metabolisers (≤0.5) versus normal/extensive metabolisers (>0.5) ([Caudle et al., 2020]).

[2] = Population pharmacokinetic modelling of plasma tafenoquine (patients and healthy volunteers); assay type: in vivo, human; conditions: for Patient – MTT covariate / Patient – Vc/F covariate / Patient – Vp/F covariate: Malaria patients: 1 + Θ; for Vomit – F covariate: Vomiting: 1 + Θ; for Age – CL/F covariate: linear, 1 + Θ × (Age-35); for Vd/F: human, plasma, oral, read-out: Vc/F, apparent central volume of distribution; for IIV CL/F, inter-individual variability / IIV F, inter-individual variability / IIV MTT, inter-individual variability / IIV Q/F, inter-individual variability / IIV Vp/F, inter-individual variability / RUV, additive residual error: variance estimate
Description: Tafenoquine pharmacokinetics have been described in detail previously ([Thakkar et al., 2018]). Tafenoquine is a slowly eliminated 8-aminoquinoline antimalarial drug with a terminal elimination half-life of around 15 days. The metabolites have not been well characterised. Tafenoquine pharmacokinetics have been characterised previously by a two-compartment pharmacokinetic (PK) model (i.e. bi-exponential decay model) with allometric scaling of clearance and volume parameters ([Thakkar et al., 2018]). We inspected visually all individual drug level profiles and excluded 10 concentrations from 8 patients which were substantial outliers. A total of 15 malaria patients vomited within one hour of drug administration. […] One patient was not re-dosed and had very low tafenoquine levels during follow-up. We removed this patient from all analyses as it is difficult to estimate the amount of drug ingested. For the remaining 14 patients who vomited and were re-dosed, time since dose was calculated as the time since the second dose (in some patients this was the next day). All available tafenoquine concentration measurements were transformed into their natural logarithms and characterised using nonlinear mixed-effects modelling in the software NONMEM v7.4 (Icon Development Solution, Ellicott City, MD). […] One-, two-, and three-compartment dispositional models were evaluated, as well as different absorption models (i.e. first-order absorption and a fixed number of transit absorption compartments). Inter-individual variability was implemented as an exponential function of all structural PK parameters. The first-order conditional estimation method with interactions (FOCE-I) and subroutine ADVAN5 TRANS1 were used throughout the study. Body weight was implemented as a fixed allometric function on clearance parameters (exponent of 0.75) and as a linear function on volume parameters (exponent of 1.0). Additional, biologically relevant, covariates (i.e. age, sex, vomiting, tafenoquine formulation and patient vs healthy volunteers) were evaluated on all PK parameters using a linearized stepwise addition (p<0.01) and backward elimination (p<0.001) covariate approach.
Potential model mis-specification and systematic errors were evaluated by basic goodness-of-fit diagnostics. Model robustness and parameter confidence intervals were evaluated by a sampling-important-resampling (SIR) procedure ([Dosne et al., 2017]). Predictive performance of the final model was illustrated by prediction-corrected visual predictive checks (n=2,000) ([Bergstrand et al., 2011]). The 5th, 50th, and 95th percentiles of the observed concentrations were overlaid with the 95% confidence intervals of each simulated percentile to detect model bias. Under the population mixed-effects model we estimated for each healthy volunteer and each patient in the three efficacy studies: (i) the area under the plasma concentration time curve ( AUC[0,∞ ); (ii) the maximum peak concentration ( Cmax ); and (iii) the terminal elimination half-life (t1/2). […] Details of the final model are given in Appendix 6.
For the terminal elimination half-life, multiple patients had estimated values greater than 30 days. On examination, the NONMEM model estimates of the terminal elimination half-life were not robust with respect to the model structure. In order to derive robust half-life estimates, we fit a robust (using a student- t likelihood, [Lange et al., 1989]) Bayesian hierarchical linear model to the observed log-concentrations post day 4 (terminal phase; random intercept and slope). […] The half-life is then defined as -log(2)/βi where βi is the individual slope estimate for patient i . Values below the lower limit of quantification were treated as left-censored observations with censoring value equal to log(2 ng/ml). The model included an interaction term between time and the log patient weight (clearance was associated with weight); and a dose (mg/kg) dependent intercept term. […]

[3] = population estimate (%RSE), typical healthy individual 70 kg, 35 years

For COc1cc(C)c2c(Oc3cccc(C(F)(F)F)c3)c(OC)cc(NC(C)CCCN)c2n1 (centres unmarked) [tafenoquine], the route of elimination ([1]; ref Brueckner et al., 1998) is listed as “eliminated via biliary excretion with enterohepatic recirculation, but is not eliminated in the urine”, the “persistence of plasma concentrations above a plausible minimum inhibitory concentration for the asexual activity” value ([1]; ref Dow and Smith, 2017) is listed as “up to three months” and the terminal elimination half-life ([1]; ref Thakkar et al., 2018) is listed as “about 15 days”. The “OR for recurrence at 4 months, poor versus normal/extensive metabolisers” value (CYP2D6; CYP2D6 activity score ≤0.5 vs >0.5, 95% CI 0.4 to 2.2) was 0.9, the “change in tafenoquine elimination half-life in poor versus normal/extensive metabolisers” value (CYP2D6; activity score ≤0.5, n=35 vs n=356, 95% CI –1.22 to 0.94) was “–0.15 days” and the “CL/F, oral elimination clearance” value ([2]; SIR median (95% CI)) was 3.14 (2.71–3.70) L/h. The “MTT, mean absorption transit time over 6 transit compartments” value ([2]; SIR median (95% CI)) was 3.05 (2.30–3.87) h, the “Vp/F, apparent peripheral volume of distribution” value ([2]; SIR median (95% CI)) was 318 (248–424) L and the “Patient – MTT covariate” value ([2]; SIR median (95% CI)) was 0.929 (0.605–1.51). The “Patient – Vc/F covariate” value ([2]; SIR median (95% CI)) was “–0.282 (-0.0784–-0.395)”, the “Patient – Vp/F covariate” value ([2]; SIR median (95% CI)) was 1.30 (0.670–1.88) and the “Vomit – F covariate” value ([2]; SIR median (95% CI)) was 0.434 (0.315–0.608). For the same compound, the “Age – CL/F covariate” value ([2]; SIR median (95% CI)) was “–0.00435 (-0.00206–-0.00589)”, the “decrease in CL/F per 10 years of age increase from the median age of 35 years” value ([2]; covariate Age – CL/F, final model) was 4.34% and the “lower central volume of distribution in patients compared to healthy volunteers” value ([2]; covariate Patient – Vc/F) was 27.6%. The “higher total dose when 1st dose was vomited and re-administered” value ([2]; covariate Vomit – F, relative oral bioavailability) was 44.7%, the Vd/F ([2]; SIR median (95% CI)) was 1360 L and the Vd/F [2, 3] was 1330 L. For the same compound, the “Patient – MTT covariate” value ([2]; population estimate (%RSE)) was 0.937 (24.7), the “Patient – Vc/F covariate” value ([2]; population estimate (%RSE)) was “–0.276 (29.4)” and the “Patient – Vp/F covariate” value ([2]; population estimate (%RSE)) was 1.40 (21.6). The “Vomit – F covariate” value ([2]; population estimate (%RSE)) was 0.447 (16.3), the “Age – CL/F covariate” value ([2]; population estimate (%RSE)) was “–0.00434 (23.4)” and the “CL/F, oral elimination clearance” value [2, 3] was 3.14 (8.43) L/h. For the same compound, the “MTT, mean absorption transit time over 6 transit compartments” value [2, 3] was 3.14 (12.8) h, the “Vp/F, apparent peripheral volume of distribution” value [2, 3] was 311 (14.4) L and the “IIV CL/F, inter-individual variability” value ([2]; SIR median (95% CI)) was 0.0349 (0.0193–0.0451). For the same compound, the “IIV F, inter-individual variability” value ([2]; SIR median (95% CI)) was 0.0870 (0.0559–0.120), the “IIV MTT, inter-individual variability” value ([2]; SIR median (95% CI)) was 0.0887 (0.0585–0.124) and the “IIV Q/F, inter-individual variability” value ([2]; SIR median (95% CI)) was 0.156 (0.1000–0.226). For the same compound, the “IIV Vp/F, inter-individual variability” value ([2]; SIR median (95% CI)) was 0.0265 (0.0153–0.0400), the “RUV, additive residual error” value ([2]; SIR median (95% CI)) was 0.0240 (0.0170–0.0333) and the “IIV CL/F, inter-individual variability” value ([2]; population estimate (%RSE)) was 0.0338 (18.8). For the same compound, the “IIV F, inter-individual variability” value ([2]; population estimate (%RSE)) was 0.0850 (19.2), the “IIV MTT, inter-individual variability” value ([2]; population estimate (%RSE)) was 0.0831 (21.0) and the “IIV Q/F, inter-individual variability” value ([2]; population estimate (%RSE)) was 0.151 (20.5). The “IIV Vp/F, inter-individual variability” value ([2]; population estimate (%RSE)) was 0.0256 (25.3) and the “RUV, additive residual error” value ([2]; population estimate (%RSE)) was 0.0225 (18.8).
